Assay results reported in PubChem BioAssay (NCI).
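At the GI50, growth is halved. TGI marks complete inhibition of growth.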

Assays:
Assay in all cases: NCI-60 cell line screen, 384-well format
A549 NSCLC = system: A549 NSCLC
KM12 colon = system: KM12 colon
UO-31 renal = system: UO-31 renal
CCRF-CEM leukemia = system: CCRF-CEM leukemia
RPMI-8226 leukemia = system: RPMI-8226 leukemia
SF-295 CNS = system: SF-295 CNS
HS 578T breast = system: HS 578T breast
NCI-H460 NSCLC = system: NCI-H460 NSCLC
SK-MEL-5 melanoma = system: SK-MEL-5 melanoma
HOP-62 NSCLC = system: HOP-62 NSCLC
HCC-2998 colon = system: HCC-2998 colon
IGROV1 ovarian = system: IGROV1 ovarian
NCI-H522 lung = system: NCI-H522 lung
SF-268 CNS = system: SF-268 CNS
MALME-3M melanoma = system: MALME-3M melanoma
MCF7 breast = system: MCF7 breast
OVCAR-3 ovarian = system: OVCAR-3 ovarian
NCI-H322M lung = system: NCI-H322M lung
TK-10 renal = system: TK-10 renal
UACC-62 melanoma = system: UACC-62 melanoma
M14 melanoma = system: M14 melanoma
NCI-H23 lung = system: NCI-H23 lung
T-47D breast = system: T-47D breast
OVCAR-4 ovarian = system: OVCAR-4 ovarian
RXF 393 renal = system: RXF 393 renal
SF-539 CNS = system: SF-539 CNS
HL-60(TB) leukemia = system: HL-60(TB) leukemia
PC-3 prostate = system: PC-3 prostate
MDA-MB-468 breast = system: MDA-MB-468 breast
DU-145 prostate = system: DU-145 prostate
SK-OV-3 ovarian = system: SK-OV-3 ovarian
LOX IMVI melanoma = system: LOX IMVI melanoma
NCI/ADR-RES ovarian = system: NCI/ADR-RES ovarian
NCI-H226 lung = system: NCI-H226 lung
K-562 leukemia = system: K-562 leukemia
HOP-92 NSCLC = system: HOP-92 NSCLC
SNB-19 CNS = system: SNB-19 CNS
SK-MEL-28 melanoma = system: SK-MEL-28 melanoma
HT29 colon = system: HT29 colon
CAKI-1 renal = system: CAKI-1 renal
MOLT-4 leukemia = system: MOLT-4 leukemia
OVCAR-8 ovarian = system: OVCAR-8 ovarian
EKVX NSCLC = system: EKVX NSCLC
UACC-257 melanoma = system: UACC-257 melanoma
A498 renal = system: A498 renal
U251 glioblastoma = system: U251 glioblastoma
SNB-75 CNS = system: SNB-75 CNS
OVCAR-5 ovarian = system: OVCAR-5 ovarian
COLO 205 colon = system: COLO 205 colon
786-0 renal = system: 786-0 renal
HCT-15 colon = system: HCT-15 colon
SR leukemia = system: SR leukemia
BT-549 breast = system: BT-549 breast
SW-620 colon = system: SW-620 colon
MDA-MB-231 breast = system: MDA-MB-231 breast
ACHN renal = system: ACHN renal
MDA-MB-435 melanoma = system: MDA-MB-435 melanoma
SN12C renal = system: SN12C renal

With C[C@@H]1COC(Nc2ccc3ncnc(Nc4ccc(OCc5nccs5)c(Cl)c4)c3c2)=N1 the GI50 (A549 NSCLC) was 4.91 µM, the TGI (A549 NSCLC) was 19.8 µM and the GI50 (KM12 colon) was 5.6 µM. The TGI (KM12 colon) was 18.8 µM, the GI50 (UO-31 renal) was 10.9 µM and the TGI (UO-31 renal) was 23.6 µM. It also gave a GI50 (CCRF-CEM leukemia) of 3.44 µM, a TGI (CCRF-CEM leukemia) of 8.53 µM and a GI50 (RPMI-8226 leukemia) of 3.48 µM. The TGI (RPMI-8226 leukemia) was 11 µM, the GI50 (SF-295 CNS) was 13 µM and the TGI (SF-295 CNS) was 26.2 µM. It also gave a GI50 (HS 578T breast) of 4.71 µM, a TGI (HS 578T breast) of 15.6 µM and a GI50 (NCI-H460 NSCLC) of 3.71 µM. For the same compound, the TGI (NCI-H460 NSCLC) was 12.8 µM, the GI50 (SK-MEL-5 melanoma) was 1.77 µM and the TGI (SK-MEL-5 melanoma) was 4.21 µM. The GI50 (HOP-62 NSCLC) was 4.22 µM, the TGI (HOP-62 NSCLC) was 15 µM and the GI50 (HCC-2998 colon) was 12.3 µM. It also gave a TGI (HCC-2998 colon) of 26.7 µM, a GI50 (IGROV1 ovarian) of 0.335 µM and a TGI (IGROV1 ovarian) of 2.13 µM. The GI50 (NCI-H522 lung) was 0.539 µM, the TGI (NCI-H522 lung) was 2.66 µM and the GI50 (SF-268 CNS) was 9.55 µM. It also gave a TGI (SF-268 CNS) of 23.5 µM, a GI50 (MALME-3M melanoma) of 3.43 µM and a TGI (MALME-3M melanoma) of 11.4 µM. The GI50 (MCF7 breast) was 5.96 µM, the TGI (MCF7 breast) was 21.2 µM and the GI50 (OVCAR-3 ovarian) was 1.83 µM. For the same compound, the TGI (OVCAR-3 ovarian) was 7.84 µM, the GI50 (NCI-H322M lung) was 0.337 µM and the TGI (NCI-H322M lung) was 12.9 µM. The GI50 (TK-10 renal) was 1.48 µM, the TGI (TK-10 renal) was 17.9 µM and the GI50 (UACC-62 melanoma) was 4.25 µM. It also gave a TGI (UACC-62 melanoma) of 16.2 µM, a GI50 (M14 melanoma) of 6.3 µM and a TGI (M14 melanoma) of 18.3 µM. The GI50 (NCI-H23 lung) was 7.4 µM, the TGI (NCI-H23 lung) was 26.3 µM and the GI50 (T-47D breast) was 0.641 µM. It also gave a TGI (T-47D breast) of 4.52 µM, a GI50 (OVCAR-4 ovarian) of 2.32 µM and a TGI (OVCAR-4 ovarian) of 14.8 µM. The GI50 (RXF 393 renal) was 5.8 µM, the TGI (RXF 393 renal) was 18.7 µM and the GI50 (SF-539 CNS) was 12.3 µM. It also gave a TGI (SF-539 CNS) of 24.8 µM, a GI50 (HL-60(TB) leukemia) of 3.82 µM and a TGI (HL-60(TB) leukemia) of 8.05 µM. The GI50 (PC-3 prostate) was 5.36 µM, the TGI (PC-3 prostate) was 17 µM and the GI50 (MDA-MB-468 breast) was 0.137 µM. For the same compound, the TGI (MDA-MB-468 breast) was 0.342 µM, the GI50 (DU-145 prostate) was 3.22 µM and the TGI (DU-145 prostate) was 17.6 µM. The GI50 (SK-OV-3 ovarian) was 2.2 µM, the TGI (SK-OV-3 ovarian) was 12.5 µM and the GI50 (LOX IMVI melanoma) was 3.25 µM. The TGI (LOX IMVI melanoma) was 11.6 µM, the GI50 (NCI/ADR-RES ovarian) was 2.39 µM and the TGI (NCI/ADR-RES ovarian) was 6.92 µM. The GI50 (NCI-H226 lung) was 1.66 µM, the TGI (NCI-H226 lung) was 5.47 µM and the GI50 (K-562 leukemia) was 4.48 µM. The TGI (K-562 leukemia) was 16.6 µM, the GI50 (HOP-92 NSCLC) was 3.25 µM and the TGI (HOP-92 NSCLC) was 17 µM. For the same compound, the GI50 (SNB-19 CNS) was 11.1 µM, the TGI (SNB-19 CNS) was 24.5 µM and the GI50 (SK-MEL-28 melanoma) was 4.88 µM. For the same compound, the TGI (SK-MEL-28 melanoma) was 17.2 µM, the GI50 (HT29 colon) was 6.33 µM and the TGI (HT29 colon) was 19.9 µM. The GI50 (CAKI-1 renal) was 1.81 µM, the TGI (CAKI-1 renal) was 14.8 µM and the GI50 (MOLT-4 leukemia) was 1.85 µM. For the same compound, the TGI (MOLT-4 leukemia) was 3.59 µM, the GI50 (OVCAR-8 ovarian) was 3.12 µM and the TGI (OVCAR-8 ovarian) was 12.4 µM. For the same compound, the GI50 (EKVX NSCLC) was 0.332 µM, the TGI (EKVX NSCLC) was 11.4 µM and the GI50 (UACC-257 melanoma) was 9.37 µM. The TGI (UACC-257 melanoma) was 21.2 µM, the GI50 (A498 renal) was 4.31 µM and the TGI (A498 renal) was 19 µM. It also gave a GI50 (U251 glioblastoma) of 10.7 µM, a TGI (U251 glioblastoma) of 22.8 µM and a GI50 (SNB-75 CNS) of 13.5 µM. For the same compound, the TGI (SNB-75 CNS) was 28.2 µM, the GI50 (OVCAR-5 ovarian) was 6.68 µM and the TGI (OVCAR-5 ovarian) was 28.2 µM. It also gave a GI50 (COLO 205 colon) of 6.44 µM, a TGI (COLO 205 colon) of 19 µM and a GI50 ([…]-0 renal) of 4.26 µM. For the same compound, the TGI (786-0 renal) was 16.9 µM, the GI50 (HCT-15 colon) was 5.44 µM and the TGI (HCT-15 colon) was 21.5 µM. It also gave a GI50 (SR leukemia) of 7.27 µM, a TGI (SR leukemia) of 20.5 µM and a GI50 (BT-549 breast) of 3.81 µM. It also gave a TGI (BT-549 breast) of 12.2 µM, a GI50 (SW-620 colon) of 19 µM and a TGI (SW-620 colon) of 35.7 µM. For the same compound, the GI50 (MDA-MB-231 breast) was 9.67 µM, the TGI (MDA-MB-231 breast) was 22.8 µM and the GI50 (ACHN renal) was 0.563 µM. For the same compound, the TGI (ACHN renal) was 17.4 µM, the GI50 (MDA-MB-435 melanoma) was 11.8 µM and the TGI (MDA-MB-435 melanoma) was 24.7 µM. The GI50 (SN12C renal) was 2.78 µM and the TGI (SN12C renal) was 16.1 µM.
